According to patent US8247211B2, “Glycopeptide antibiotics” (American Cyanamid Company, priority 2001, dated 2012):
Values after ≈ are worked out from the molar mass of the structure shown.

Tests used:
Assay in all cases: In vitro antibacterial evaluation: minimum inhibitory concentration (MIC), broth dilution method
Assay type in all cases: cell-based
[1] = system: Enterococcus sp.; conditions: 18 hours at 35° C.
In short: (§1)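 NCCLS M7-A2 broth dilution with Mueller-Hinton II, testing 64-0.06 μg/mL antibiotic against 5×10^5 CFU/mL inocula. Test strains include recent methicillin-, penicillin- or vancomycin-resistant clinical isolates. MIC is the lowest concentration preventing growth.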

[2] = system: Streptococcus sp.; conditions: 18 hours at 35° C.
In short: as §1

[3] = system: Escherichia coli; conditions: 18 hours at 35° C.
In short: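 MIC read as lowest drug level preventing visible growth. Organisms at 5×10^5 CFU/mL were exposed to a 64-0.06 μg/mL dilution series in Muller-Hinton II […] following NCCLS broth dilution standard M7-A2.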

[4] = system: Staphylococcus sp.
In short: as §1

[5] = broth dilution, inoculum 5×10^5 CFU/mL

MIC Enterococcus avium (GC 4558) ([1]; Enterococcus avium (GC 4558)): 1 µg/mL (≈ 0.699 µM)
MIC Enterococcus faecalis (ATCC 29212) ([1]; Enterococcus faecalis (ATCC 29212)): 4 µg/mL (≈ 2.79 µM)
MIC Enterococcus faecalis (GC 2242) ([1]; Enterococcus faecalis (GC 2242)): 4 µg/mL (≈ 2.79 µM)
MIC Enterococcus faecalis (GC 2691) ([1]; Enterococcus faecalis (GC 2691)): 2 µg/mL (≈ 1.4 µM)
MIC Enterococcus faecalis (GC 3059) ([1]; Enterococcus faecalis (GC 3059)): 2 µg/mL (≈ 1.4 µM)
MIC Enterococcus faecalis (GC 4552) ([1]; Enterococcus faecalis (GC 4552)): 4 µg/mL (≈ 2.79 µM)
MIC Enterococcus faecalis (GC 4553) ([1]; Enterococcus faecalis (GC 4553)): 4 µg/mL (≈ 2.79 µM)
MIC Enterococcus faecalis (GC 4554) ([1]; Enterococcus faecalis (GC 4554)): 4 µg/mL (≈ 2.79 µM)
MIC Enterococcus faecalis (GC 6189) ([1]; Enterococcus faecalis (GC 6189)): 2 µg/mL (≈ 1.4 µM)
MIC Enterococcus faecium (GC 2243) ([1]; Enterococcus faecium (GC 2243)): 4 µg/mL (≈ 2.79 µM)
MIC Enterococcus faecium (GC 4556) ([1]; Enterococcus faecium (GC 4556)): 4 µg/mL (≈ 2.79 µM)
MIC Enterococcus faecium (GC 4557) ([1]; Enterococcus faecium (GC 4557)): 2 µg/mL (≈ 1.4 µM)
MIC Enterococcus avium (GC 4558) [1, 5]: 1 µg/mL (≈ 0.699 µM)
MIC Enterococcus faecalis (ATCC 29212) [1, 5]: 4 µg/mL (≈ 2.79 µM)
MIC Enterococcus faecalis (GC 2242) [1, 5]: 4 µg/mL (≈ 2.79 µM)
MIC Enterococcus faecalis (GC 2691) [1, 5]: 2 µg/mL (≈ 1.4 µM)
MIC Enterococcus faecalis (GC 3059) [1, 5]: 2 µg/mL (≈ 1.4 µM)
MIC Enterococcus faecalis (GC 4552) [1, 5]: 4 µg/mL (≈ 2.79 µM)
MIC Enterococcus faecalis (GC 4553) [1, 5]: 4 µg/mL (≈ 2.79 µM)
MIC Enterococcus faecalis (GC 4554) [1, 5]: 4 µg/mL (≈ 2.79 µM)
MIC Enterococcus faecalis (GC 6189) [1, 5]: 2 µg/mL (≈ 1.4 µM)
MIC Enterococcus faecium (GC 2243) [1, 5]: 4 µg/mL (≈ 2.79 µM)
MIC Enterococcus faecium (GC 4556) [1, 5]: 4 µg/mL (≈ 2.79 µM)
MIC Enterococcus faecium (GC 4557) [1, 5]: 2 µg/mL (≈ 1.4 µM)
MIC Streptococcus agalactiae (GC 4564) ([2]; Streptococcus agalactiae (GC 4564)): <0.12 µg/mL
MIC Streptococcus pneumoniae (ATCC 6301) ([2]; Streptococcus pneumoniae (ATCC 6301)): <0.12 µg/mL
MIC Streptococcus pneumoniae (GC 1894) ([2]; Streptococcus pneumoniae (GC 1894)): <0.12 µg/mL
MIC Streptococcus pneumoniae (GC 4565) ([2]; Streptococcus pneumoniae (GC 4565)): <0.12 µg/mL
MIC Streptococcus pyogenes (GC 4563) ([2]; Streptococcus pyogenes (GC 4563)): <0.12 µg/mL
MIC Streptococcus agalactiae (GC 4564) [2, 5]: <0.12 µg/mL
MIC Streptococcus pneumoniae (ATCC 6301) [2, 5]: <0.12 µg/mL
MIC Streptococcus pneumoniae (GC 1894) [2, 5]: <0.12 µg/mL
MIC Streptococcus pneumoniae (GC 4565) [2, 5]: <0.12 µg/mL
MIC Streptococcus pyogenes (GC 4563) [2, 5]: <0.12 µg/mL
MIC Escherichia coli (ATCC 25922) ([3]; Escherichia coli (ATCC 25922)): 32 µg/mL (≈ 22.4 µM)
MIC Escherichia coli (GC 4559) ([3]; Escherichia coli (GC 4559)): 64 µg/mL (≈ 44.7 µM)
MIC Escherichia coli (GC 4560) ([3]; Escherichia coli (GC 4560)): 2 µg/mL (≈ 1.4 µM)
MIC Staphylococcus aureus (ATCC 29213) ([4]; strain ATCC 29213): 1 µg/mL (≈ 0.699 µM)
MIC Staphylococcus aureus (GC 1131) ([4]; strain GC 1131): 2 µg/mL (≈ 1.4 µM)
MIC Staphylococcus aureus (GC 3051) ([4]; strain GC 3051): 2 µg/mL (≈ 1.4 µM)
MIC Staphylococcus aureus (GC 3053) ([4]; strain GC 3053): 1 µg/mL (≈ 0.699 µM)
MIC Staphylococcus aureus (GC 4541) ([4]; strain GC 4541): 1 µg/mL (≈ 0.699 µM)
MIC Staphylococcus aureus (GC 4542) ([4]; strain GC 4542): 1 µg/mL (≈ 0.699 µM)
MIC Staphylococcus aureus-SMITH (GC 4543) ([4]; strain GC 4543): 1 µg/mL (≈ 0.699 µM)
MIC Staphylococcus aureus (GC 4544) ([4]; strain GC 4544): 1 µg/mL (≈ 0.699 µM)
MIC Staphylococcus aureus (GC 4545) ([4]; strain GC 4545): 1 µg/mL (≈ 0.699 µM)
MIC Coagulase Negative Staphylococcus (GC 4547) ([4]; strain GC 4547): 1 µg/mL (≈ 0.699 µM)
MIC Coagulase Negative Staphylococcus (GC 4548) ([4]; strain GC 4548): 0.5 µg/mL (≈ 0.349 µM)
MIC Coagulase Negative Staphylococcus (GC 4549) ([4]; strain GC 4549): 0.5 µg/mL (≈ 0.349 µM)
MIC Coagulase Negative Staphylococcus (GC 4551) ([4]; strain GC 4551): 4 µg/mL (≈ 2.79 µM)
SMILES: CC(c1ccccc1)C1NC(=O)CNC(=O)C(CO)NC(=O)C(C(O)C2CNC(=N)N2C2OC(CO)C(O)C(O)C2O)NC(=O)C(C(O)C2CNC(=N)N2)NC(=O)C(Cc2ccc(OC3OC(CO)C(OC4OC5COC6(CC(C)(C)CC(C)(C)C6)OC5C(O)C4O)C(O)C3O)cc2)NC1=O (stereo not drawn) [Example 207, Cyclo[glycyl-β-methylphenylalanyl-O-[4-O-[4,6-O-(3,3,5,5-tetramethylcyclohexylidene)hexopyranosyl]hexopyranosyl]tyrosyl-3-(2-iminoimidazolidin-4-yl)seryl-3-(3-hexopyranosyl-2-iminoimidazolidin-4-yl)serylseryl]]
MIC Staphylococcus haemolyticus (GC 4546) ([4]; strain GC 4546): 1 µg/mL (≈ 0.699 µM)
